Like-named read-outs stand apart in the source and are kept apart here.
Experiments:
A375-Stat3-ER cells [1] = conditions: for reduction of A375-Stat3ER cell number: 3 days
Protocol: In order to evaluate the role of Stat3 in A375 cell proliferation, A375-Stat3-ER cells were grown in the presence of OSM or 4HT and cell number determined over 3 days.

A375-Stat3-ER cells [2] = conditions: for effect on cell cycle profile: A375-Stat3-ER cells
Protocol: In brief, cells were harvested at the indicated times (24, 48 and 72 h) washed three times with ice-cold PBS and resuspended in propidium iodide buffer (1 mM sodium citrate (pH 4.0), 1.5 mM NaCl, 5 mM EDTA, 5 mM EGTA, 0.1% NP40, 4 mg/ml propidium iodide and 80 mg/ml of RNase A). After 30 min incubation in the dark on ice, cell cycle distribution was measured with a Becton Dickinson FACS can flow cytometer.

Stat3 = assay: TEL-Stat3 interaction, immunoprecipitation from nuclear extracts; assay type: binding
Protocol: Since the TEL DNA-binding domain is not required for repression of Stat3 activity, this Example tests the possibility that TEL interacts directly with Stat3. Extracts from nuclear-enriched fractions were prepared from control or OSM-stimulated A375 cells. […] Endogenous TEL was present in Stat3 immunoprecipitates and the levels of TEL associating with Stat3 increased in OSM-treated compared to control-treated nuclear extracts. Conversely, Stat3 is present in a TEL-containing complex, pulled down through an immobilized GGM-containing oligonucleotide, which is a binding site for TEL.

TEL [3] = assay: TEL expression in human cancer cell lines; assay type: cell-based
Excerpt: TEL is usually expressed as two protein isoforms corresponding to initiation of TEL mRNA translation at ATG codon 1 and 43 (TEL and TEL43). […] To ascertain if TEL is a natural target of Stat3, we examined its expression in human cancer cell lines in response to OSM or IL-6. […] However, TEL expression was unchanged in other cell lines, including the prostate cancer cells PC3 and LNCaP and MDA-MB-468 breast cancer cells, even though it was expected that Stat3 is activated in each of these cell lines by IL-6/OSM treatment.

parent A375 cells = assay: Proliferation of parent A375 cells; conditions: 4HT 1 microM
C/EBPdelta mRNA = assay: C/EBPdelta expression (quantitative PCR); assay type: cell-based; conditions: quantitative PCR
Protocol: A LacZ siRNA was used as control. The designed RNA oligonucleotides were ‘blasted’ against the GENBANK/EMBL databank to ensure gene specificity. The RNA oligonucleotides were obtained commercially. Transfection with expression vectors was carried out 1 day after the siRNA transfection using Effectene.

TEL [4] = assay: TEL protein level by Western blotting; assay type: cell-based; conditions: for TEL isoforms (TEL and TEL43) expression: ASER cells
Protocol: Protein analysis was carried out by Western blotting. In brief, cells were harvested in NP40 extraction buffer (50 mM Tris (pH 7.5), 1 mM EGTA, 5 mM EDTA, 120 mM NaCl, 1% NP40, 2 mM sodium orthovanadate, 50 mM sodium fluoride, 20 mM ? -glycerophosphate, 10 μg/ml leupeptin, 10 μg/ml aprotinin, and 0.5 mM phenylmethylsulfonyl fluoride) for 5 min on ice. The lysates were clarified by centrifugation and protein concentrations were determined using the Bio-Rad protein assay reagent (Bio-Rad Laboratories Gmbh, Munich, Germany). For immunoprecipitaton, equal amounts of proteins were incubated with Stat3 (C-20) from Santa Cruz Biotechnology (Santa Cruz, Calif.) for 1 hr. Following SDS-polyacrylamide gel eletrophoresis (SDS-PAGE), proteins were blotted onto polyvinylidene difluoride membranes (Boehringer Mannheim, Mannheim, Germany). After blocking with 10% horse serum (Life Technologies, Inc.) in 50 mM Tris pH 7.5, 150 mM NaCl, 0.05% Tween 20, filters were probed with specific antibodies; c-TEL, Stat3 (C-20) from Santa Cruz Biotechnology (Santa Cruz, Calif.), phospho-Stat3 (Tyr 705) from Cell Signaling Technology (Beverly, Mass.). Proteins were visualized with peroxidase-coupled secondary antibodies using the enhanced chemiluminescence detection system (Amersham Pharmacia Biotech, Little Chalfont, United Kingdom).

[5] = 24 h, 4HT 1 microM, OSM 100 ng/ml, control 1.48
[6] = 48 h, 4HT 1 microM, OSM 100 ng/ml, control 4.33
[7] = 72 h, 4HT 1 microM, OSM 100 ng/ml, control 7.83
[8] = nuclear lysates of OSM-stimulated A375 cells

## oncostatin M [OSM]
A375-Stat3-ER cells [1]; 0 h (start of treatment)
  Number of Cells: 0.8 ×10^5
A375-Stat3-ER cells [1]; 4HT 1 microM, OSM 100 ng/ml
  reduction of A375-Stat3ER cell number: about 40%
A375-Stat3-ER cells [1]; [5]
  Number of Cells: 1.15 ×10^5
A375-Stat3-ER cells [1]; [6]
  Number of Cells: 2.58 ×10^5
A375-Stat3-ER cells [1]; [7]
  Number of Cells: 4.35 ×10^5
A375-Stat3-ER cells [2]
  effect on cell cycle profile: little effect
Stat3; OSM-treated compared to control-treated nuclear extracts
  levels of TEL associating with Stat3 in Stat3 immunoprecipitates: increased
Stat3; [8]
  nuclear Stat3 levels: expected increase in Stat3 levels
  nuclear content of TEL: not affected
TEL [3]; PC3, LNCaP prostate cancer cells and MDA-MB-468 breast cancer cells
  TEL expression: unchanged
TEL [3]; T47D and SKBr-3 breast cancer cells, DU145 prostate carcinoma cells, HepG2 hepatoma-derived cells
  TEL expression: significantly increased

## CCC(=C(c1ccc(O)cc1)c1ccc(OCCN(C)C)cc1)c1ccccc1 [4HT, 4-hydroxytamoxifen, reference compound]
A375-Stat3-ER cells [1]; 0 h (start of treatment)
  Number of Cells: 0.8 ×10^5
A375-Stat3-ER cells [1]; 4HT 1 microM, OSM 100 ng/ml
  reduction of A375-Stat3ER cell number: about 40%
A375-Stat3-ER cells [1]; [5]
  Number of Cells: 1.49 ×10^5
A375-Stat3-ER cells [1]; [6]
  Number of Cells: 3.60 ×10^5
A375-Stat3-ER cells [1]; [7]
  Number of Cells: 4.44 ×10^5
A375-Stat3-ER cells [2]; 24 h
  Apoptotic cells: <1%
  G1 (change in percentage of cells): +1%
  G2/M (change in percentage of cells): +2%
  S (change in percentage of cells): −3%
A375-Stat3-ER cells [2]; 48 h
  Apoptotic cells: <1%
  G2/M (change in percentage of cells): −6%
  S (change in percentage of cells): +1%
A375-Stat3-ER cells [2]; 72 h
  G1 (change in percentage of cells): −1%
  G2/M (change in percentage of cells): +1%
  S (change in percentage of cells): 0%
A375-Stat3-ER cells [2]; 72 h (3 days)
  Apoptotic cells: <1%
A375-Stat3-ER cells [2]
  effect on cell cycle profile: only marginally affected
A375-Stat3-ER cells [2]; A375 Stat3-ER cells
  entry into S phase after release of cells synchronized in G1: delayed relative to control cells
Parent A375 cells
  proliferation of the parent A375 cells: does not affect proliferation
C/EBPdelta mRNA
  C/EBPdelta mRNA: significantly increased
TEL [4]; Stat3-ER-expressing A375 cells
  TEL protein level upon treatment: strongly increased
TEL [4]; after 24 hrs of treatment
  TEL isoforms (TEL and TEL43) expression: strongly increased
TEL [4]; within 8 hrs of 4HT addition
  TEL isoforms (TEL and TEL43) expression: significantly increased

— US20080064027A1, “TEL/Etv6-mediated inhibition of cell proliferation” (priority 2002, published 2008)
